Data on twelve compounds can be found in patent US9540392B2, “Thienopyrimidines” (BAYER PHARMA AKTIENGESELLSCHAFT, priority 2012, dated 2017).

pIC50: −log10 of the molar value.

This assay deals with T1, human full-length MKNK1 (Homo sapiens, UniProt Q9BUB5, T385D).
T1 construct: GST (N); purchased Carna Biosciences 02-145; host or cells: insect cells (baculovirus expression system)
T1 sequence (Q9BUB5 1-424 isoform Q9BUB5-2 T344D): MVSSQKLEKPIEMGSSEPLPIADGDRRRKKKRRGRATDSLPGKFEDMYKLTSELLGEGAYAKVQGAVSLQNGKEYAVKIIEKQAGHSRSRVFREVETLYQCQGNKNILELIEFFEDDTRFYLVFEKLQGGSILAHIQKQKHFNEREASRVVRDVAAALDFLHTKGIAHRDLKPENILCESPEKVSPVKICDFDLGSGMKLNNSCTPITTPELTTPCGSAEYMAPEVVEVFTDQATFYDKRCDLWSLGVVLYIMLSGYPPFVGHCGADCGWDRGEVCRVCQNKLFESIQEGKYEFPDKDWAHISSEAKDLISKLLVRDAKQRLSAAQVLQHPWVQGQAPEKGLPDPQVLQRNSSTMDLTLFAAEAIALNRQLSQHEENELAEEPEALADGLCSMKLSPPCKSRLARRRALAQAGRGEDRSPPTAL
The experiment in a line: MKNK1 kinase high ATP assay (TR-FRET). The class given is biochemical. As to conditions: 2 mM ATP, after preincubation with MKNK1; read-out: MKNK1 IC50 (MKNK1 high ATP). An outline of the steps:
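Compound was preincubated 15 min at 22° C. with MKNK1 in 50 mM HEPES pH 7.5, 5 mM MgCl2, 1.0 mM DTT, then the reaction ran 30 min at 22° C. with 2 mM ATP and 0.06 μM biotinylated peptide (final).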
(TR-FRET usually uses a lanthanide donor and a delayed reading to cut background.)
As a reminder, the pIC50 is the negative decadic logarithm of the IC50, by convention in mol/L. On to `Cc1ccc(NC(=O)C2CCc3c(sc4ncnc(Nc5ccc6[nH]ncc6c5)c34)C2)cc1` (stereo not drawn) [Example 17, 4-(1H-indazol-5-ylamino)-N-(4-methylphenyl)-5,6,7,8-tetrahydro[1]benzothieno[2,3-d]pyrimidine-7-carboxamide], for which the negative logarithm of the IC50 (pIC50) is 8.30.

Consider `COc1cccc(CNC(=O)C2CCc3c(sc4ncnc(Nc5ccc6[nH]ncc6c5)c34)C2)c1` (stereo not drawn) [Example 19, 4-(1H-indazol-5-ylamino)-N-(3-methoxybenzyl)-5,6,7,8-tetrahydro[1] benzothieno [2,3-d]pyrimidine-7-carboxamide], for which the negative-log IC50 (pIC50) is 8.70.

With `COc1ccccc1CNC(=O)C1CCc2c(sc3ncnc(Nc4ccc5[nH]ncc5c4)c23)C1` (stereo not drawn) [Example 22, 4-(1H-Indazol-5-ylamino)-N-(2-methoxybenzyl)-5,6,7,8-tetrahydro[1] benzothieno[2,3-d] pyrimidine-7-carboxamide], the pIC50 was 8.52.

Regarding `O=C(NCc1ccc2c(c1)OCO2)C1CCc2c(sc3ncnc(Nc4ccc5[nH]ncc5c4)c23)C1` (stereo not drawn) [Example 23, N-(1,3-Benzodioxol-5-ylmethyl)-4-(1H-indazol-5-ylamino)-5,6,7,8-tetrahydro[1] benzothieno [2,3-d]pyrimidine-7-carboxamide], the pIC50 is 8.52.

Regarding `O=C(NCc1ccc(F)cc1)C1CCc2c(sc3ncnc(Nc4ccc5[nH]ncc5c4)c23)C1` (stereo not drawn) [Example 24, N-(4-Fluorobenzyl)-4-(1H-indazol-5-ylamino)-5,6,7,8-tetrahydro[1] benzothieno [2,3-d]pyrimidine-7-carboxamide], the pIC50 is 8.52.

`COc1ccc(CCNC(=O)C2CCc3c(sc4ncnc(Nc5ccc6[nH]ncc6c5)c34)C2)cc1` (stereo not drawn) [Example 25, 4-(1H-Indazol-5-ylamino)-N-[2-(4-methoxyphenyl)ethyl]-5,6,7,8-tetrahydro[1] benzothieno [2,3-d]pyrimidine-7-carboxamide]: the pIC50 is 8.52.

`CN(Cc1ccncc1)C(=O)C1CCc2c(sc3ncnc(Nc4ccc5[nH]ncc5c4)c23)C1` (stereo not drawn) [Example 26, 4-(1H-Indazol-5-ylamino)-N-methyl-N-(pyridin-4-ylmethyl)-5,6,7,8-tetrahydro[1] benzothieno [2,3-d]pyrimidine-7-carboxamide]: the pIC50 was 8.52.

Consider `Cc1ccc(CNC(=O)C2CCc3c(sc4ncnc(Nc5ccc6[nH]ncc6c5)c34)C2)cc1` (stereo not drawn) [Example 27, 4-(1H-Indazol-5-ylamino)-N-(4-methylbenzyl)-5,6,7,8-tetrahydro[1] benzothieno [2,3-d]pyrimidine-7-carboxamide], for which the negative-log IC50 (pIC50) is 8.52.

As to `O=C(NCc1ccc(C(F)(F)F)cc1)C1CCc2c(sc3ncnc(Nc4ccc5[nH]ncc5c4)c23)C1` (stereo not drawn) [Example 28, 4-(1H-Indazol-5-ylamino)-N-[4-(trifluoromethyl)benzyl]-5,6,7,8-tetrahydro[1] benzothieno [2,3-d]pyrimidine-7-carboxamide], the pIC50 is 8.40.

`O=C(NCc1ccncc1)C1CCc2c(sc3ncnc(Nc4ccc5[nH]ncc5c4)c23)C1` (stereo not drawn) [Example 29, 4-(1H-Indazol-5-ylamino)-N-(pyridin-4-ylmethyl)-5,6,7,8-tetrahydro[1] benzothieno [2,3-d]pyrimidine-7-carboxamide]: the pIC50 was 8.40.

With `COc1ccc(CNC(=O)C2CCc3c(sc4ncnc(Nc5ccc6[nH]ncc6c5)c34)C2)cc1` (stereo not drawn) [Example 30, 4-(1H-Indazol-5-ylamino)-N-(4-methoxybenzyl)-5,6,7,8-tetrahydro[1] benzothieno [2,3-d]pyrimidine-7-carboxamide], the negative logarithm of the IC50 (pIC50) is 8.40.

For `O=C(NCCOc1ccccc1)C1CCc2c(sc3ncnc(Nc4ccc5[nH]ncc5c4)c23)C1` (stereo not drawn) [Example 31, 4-(1H-Indazol-5-ylamino)-N-(2-phenoxyethyl)-5,6,7,8-tetrahydro[1] benzothieno [2,3-d]pyrimidine-7-carboxamide], the negative logarithm of the IC50 (pIC50) was 8.40.
